Source: patent EP0567205A1, “Use of opiate antagonists in the manufacture of agents for the diagnosis and therapy of hypothalamic function disorders” (Ferring Arzneimittel GmbH, priority 1986, dated 1988)
Entries after “also recorded” stand apart in the source; their conditions may differ.

Key:
[1] = general statement on the known drug; oral administration possible; cited from earlier work
[2] = tested on: Patientinnen, die an hypothalamischer Amenorrhoe litten; test: Naltrexon administration to patients with hypothalamic amenorrhea (serial blood sampling for LH, FSH, prolactin and ovarian steroids; ultrasound); format: in vivo
Description: Im Rahmen der vorliegenden Erfindung wurden Untersuchungen an Patientinnen mit hypothalamischer Amenorrhoe durchgeführt. Diese Untersuchungen haben überraschenderweise gezeigt, daß durch die Gabe des Opiat-Antagonisten Naltrexon eine Zunahme von Frequenz und Amplitude der LH und FSH Sekretion erreicht wird. Es kann daher davon ausgegangen werden, daß die endogene GnRH Sekretion durch den Opiat-Antagonisten vermehrt wird.
Die basale Gonadotropin Sekretion von Patientinnen, die an hypothalamischer Amenorrhoe litten, wurde durch Bestimmung von LH und FSH, Prolactin und Ovarien-Steroiden in ßlutproben bewertet, die alle zehn Minuten während 24 Stunden entnommen wurden. Naltrexon wurde dann in einer Dosis von 50 mg pro Tag während 24 oder 28 Tagen verabreicht. 5 Tage und 14 Tage nach dem Beginn der Naltrexonverabreichung wurden wiederholte Blutproben entnommen. An den übrigen Tagen wurden täglich Blutproben entnommen und es wurde eine Ultraschalluntersuchung nach der Naltrexonverabreichung sowie einige Tage danach durchgeführt. Es wurden folgende Ergebnisse ermittelt:
Auf die Verabreichung von Naltrexon folgte eine Zunahme der Frequenz und der Amplitude der pulsatielen Gonadotropin Sekretion sowie eine Zunahme der mittleren LH und FSH Serumkonzentration sowie der Entwicklung der Gonaden-Steroid Sekretion und der Follikel, was durch Ultraschall festgestellt wurde.

[3] = hypothalamic amenorrhea, 50 mg pro Tag während 24 oder 28 Tagen
[4] = patients with hypothalamic amenorrhea, summary statement

O=C1CC[C@@]2(O)[C@H]3Cc4ccc(O)c5c4[C@@]2(CCN3CC2CC2)C1O5 (stereo partly drawn) [Naltrexon, 17-(Cyclopropylmethyl)-4,5-epoxy-3,14-dihydroxymorphinan-6-on]
Verweildauer im Plasma [1]: lange
Entwicklung der Follikel ([2]; by ultrasound, hypothalamic amenorrhea, 50 mg pro Tag während 24 oder 28 Tagen): Zunahme
Amplitude der pulsatielen Gonadotropin Sekretion [2, 3]: Zunahme
Entwicklung der Gonaden-Steroid Sekretion [2, 3]: Zunahme
Frequenz der pulsatielen Gonadotropin Sekretion [2, 3]: Zunahme
mittlere FSH Serumkonzentration [2, 3]: Zunahme
mittlere LH Serumkonzentration [2, 3]: Zunahme
Menstruation nach Absetzen des Mittels ([2]; patients who menstruated after withdrawal, hypothalamic amenorrhea, 50 mg pro Tag während 24 oder 28 Tagen): Sämtliche Patientinnen menstruierten
Ovulation ([2]; patients who ovulated, hypothalamic amenorrhea, 50 mg pro Tag während 24 oder 28 Tagen): führte zur Normalisierung der Gonadotropin-Sekretion, zur Ovulation; also recorded: Eine von 3 Patientinnen ovulierte
Bildung eines Corpus luteum [2, 4]: zur Bildung eines Corpus luteum
Gonadotropin-Sekretion [2, 4]: Normalisierung
menstrueller Zyklus [2, 4]: Normalisierung
